Test results taken from patent publication US20240092784A1, “CONDENSED HETEROCYCLIC COMPOUND” (NISSAN CHEMICAL CORPORATION, priority 2020, published 2024).
Structures can show the parent of a compound that is named as a salt.

Molecular target: human SPR (Homo sapiens (Human), UniProt P35270)
Assay: Evaluation Example 2: Measurement of human SPR inhibitory activity (seven concentrations, sepiapterin absorbance at 420 nm)
Format: biochemical
Settings: Evaluation Example 2, seven concentrations 0.14 nM to 100 nM, 240 minutes at room temperature, read-out: IC50
Summary of the method: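 Reactions ran 240 min at room temperature in 100 mM Tris-HCl pH 7.5 with 0.01% BSA. They contained tag-cleaved, E. coli-expressed full-length human SPR (diluted to 150 ng/mL), seven compound concentrations from 0.14 to 100 nM, and sepiapterin/NADPH added as a 120 μM/160 μM solution. Inhibition was calculated from sepiapterin absorbance at 420 nm.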

Chain of human SPR (P35270 whole entry): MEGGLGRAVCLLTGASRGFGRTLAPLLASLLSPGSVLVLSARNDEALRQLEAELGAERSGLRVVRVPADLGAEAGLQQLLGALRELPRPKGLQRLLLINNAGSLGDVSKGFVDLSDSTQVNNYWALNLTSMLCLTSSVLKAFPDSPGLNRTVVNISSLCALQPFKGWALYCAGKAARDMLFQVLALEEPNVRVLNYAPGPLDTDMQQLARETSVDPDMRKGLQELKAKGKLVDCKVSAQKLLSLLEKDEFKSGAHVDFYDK

CC(C)Cn1c(=O)c(C(=O)NC2CC2)c(O)n2ncc(/C=C/C(=O)N3CCC(C(F)(F)F)CC3)c12 [compound 480, (E)-N-Cyclopropyl-7-hydroxy-4-isobutyl-5-oxo-3-(3-oxo-3-(4-(trifluoromethyl)piperidine-1-yl)prop-1-en-1-yl)-4,5-dihydropyrazolo[1,5-a]pyrimidine-6-carboxamide] was tested, and the IC50 was 1.12 nM.

In the case of CC(C)Cn1c(=O)c(C(=O)NC2CC2)c(O)n2ncc(/C=C/C(=O)N3CC[C@@H](F)C3)c12 [compound 481, (R,E)-N-Cyclopropyl-3-(3-(3-fluoropyrrolidin-1-yl)-3-oxoprop-1-en-1-yl)-7-hydroxy-4-isobutyl-5-oxo-4,5-dihydropyrazolo[1,5-a]pyrimidine-6-carboxamide], the IC50 is reported as 0.75 nM.

CC(C)Cn1c(=O)c(C(=O)NC2CC2)c(O)n2ncc(/C=C/C(=O)N3CC[C@H](C#N)C3)c12 [compound 482, (S,E)-3-(3-(3-Cyanopyrrolidin-1-yl)-3-oxoprop-1-en-1-yl)-N-cyclopropyl-7-hydroxy-4-isobutyl-5-oxo-4,5-dihydropyrazolo[1,5-a]pyrimidine-6-carboxamide] gave an IC50 of 0.71 nM.

CC(C)Cn1c(=O)c(C(=O)NC2CC2)c(O)n2ncc(/C=C/C(=O)N3CC[C@@H](C#N)C3)c12 [compound 483, (R,E)-3-(3-(3-Cyanopyrrolidin-1-yl)-3-oxoprop-1-en-1-yl)-N-cyclopropyl-7-hydroxy-4-isobutyl-5-oxo-4,5-dihydropyrazolo[1,5-a]pyrimidine-6-carboxamide] was tested, and the IC50 was 0.69 nM.

CC(C)Cn1c(=O)c(C(=O)NC2CC2)c(O)n2ncc(/C=C/C(=O)N3CCC[C@H]3C(F)(F)F)c12 [compound 484, (S,E)-N-Cyclopropyl-7-hydroxy-4-isobutyl-5-oxo-3-(3-oxo-3-(2-(trifluoromethyl)pyrrolidine-1-yl)prop-1-en-1-yl)-4,5-dihydropyrazolo[1,5-a]pyrimidine-6-carboxamide] showed an IC50 of 1.2 nM.

CC(C)Cn1c(=O)c(C(=O)NC2CC2)c(O)n2ncc(/C=C/C(=O)N3CCC[C@@H]3C(F)(F)F)c12 [compound 485, (R,E)-N-Cyclopropyl-7-hydroxy-4-isobutyl-5-oxo-3-(3-oxo-3-(2-(trifluoromethyl)pyrrolidine-1-yl)prop-1-en-1-yl)-4,5-dihydropyrazolo[1,5-a]pyrimidine-6-carboxamide] was tested, and the IC50 was 1.1 nM.

In the case of CC(C)Cn1c(=O)c(C(=O)NC2CC2)c(O)n2ncc(/C=C/C(=O)N3CCC[C@H]3C(N)=O)c12 [compound 486, (S,E)-3-(3-(2-Carbamoylpyrrolidin-1-yl)-3-oxoprop-1-en-1-yl)-N-cyclopropyl-7-hydroxy-4-isobutyl-5-oxo-4,5-dihydropyrazolo[1,5-a]pyrimidine-6-carboxamide], the IC50 is reported as 0.92 nM.

CC(C)Cn1c(=O)c(C(=O)NC2CC2)c(O)n2ncc(/C=C/C(=O)N3CCC[C@@H]3C(N)=O)c12 [compound 487, (R,E)-3-(3-(2-Carbamoylpyrrolidin-1-yl)-3-oxoprop-1-en-1-yl)-N-cyclopropyl-7-hydroxy-4-isobutyl-5-oxo-4,5-dihydropyrazolo[1,5-a]pyrimidine-6-carboxamide] gave an IC50 of 0.97 nM.

Work on CC(C)Cn1c(=O)c(C(=O)NC2CC2)c(O)n2ncc(/C=C/C(=O)N3CCC(S(C)(=O)=O)CC3)c12 [compound 488] yielded an IC50 of 0.87 nM.

In the case of CC(C)Cn1c(=O)c(C(=O)NC2CC2)c(O)n2ncc(/C=C/C(=O)N3CCOC(C)(C)C3)c12 [compound 489, (E)-N-Cyclopropyl-3-(3-(2,2-dimethylmorpholino)-3-oxoprop-1-en-1-yl)-7-hydroxy-4-isobutyl-5-oxo-4,5-dihydropyrazolo[1,5-a]pyrimidine-6-carboxamide], the IC50 is reported as 0.93 nM.

CC(C)Cn1c(=O)c(C(=O)NC2CC2)c(O)n2ncc(/C=C/C(=O)N3C[C@H](C)O[C@@H](C)C3)c12 [compound 490, N-Cyclopropyl-3-((E)-3-((2S,6S)-2,6-dimethylmorpholino)-3-oxoprop-1-en-1-yl)-7-hydroxy-4-isobutyl-5-oxo-4,5-dihydropyrazolo[1,5-a]pyrimidine-6-carboxamide] showed an IC50 of 0.88 nM.

With CC(C)Cn1c(=O)c(C(=O)NC2CC2)c(O)n2ncc(/C=C/C(=O)N3C[C@@H](C)O[C@H](C)C3)c12 [compound 491] the IC50 was 0.82 nM.

Work on CC(C)Cn1c(=O)c(C(=O)NC2CC2)c(O)n2ncc(/C=C/C(=O)NC3(C)CCOCC3)c12 [compound 492, (E)-N-Cyclopropyl-7-hydroxy-4-isobutyl-3-(3-((4-methyltetrahydro-2H-pyran-4-yl)amino)-3-oxoprop-1-en-1-yl)-5-oxo-4,5-dihydropyrazolo[1,5-a]pyrimidine-6-carboxamide] yielded an IC50 of 0.89 nM.

For CC(C)Cn1c(=O)c(C(=O)NC2CC2)c(O)n2ncc(/C=C/C(=O)NC(C)(C)C3CC3)c12 [compound 493], the IC50 was 0.94 nM.

CC(C)Cn1c(=O)c(C(=O)NC2CC2)c(O)n2ncc(/C=C/C(=O)N3CCOC[C@H]3C)c12 [compound 494, (R,E)-N-Cyclopropyl-7-hydroxy-4-isobutyl-3-(3-(3-methylmorpholino)-3-oxoprop-1-en-1-yl)-5-oxo-4,5-dihydropyrazolo[1,5-a]pyrimidine-6-carboxamide] gave an IC50 of 0.73 nM.

In the case of CC(C)Cn1c(=O)c(C(=O)NC2CC2)c(O)n2ncc(/C=C/C(=O)N3CCC[C@H]3C#N)c12 [compound 495, (S,E)-3-(3-(2-Cyanopyrrolidin-1-yl)-3-oxoprop-1-en-1-yl)-N-cyclopropyl-7-hydroxy-4-isobutyl-5-oxo-4,5-dihydropyrazolo[1,5-a]pyrimidine-6-carboxamide], the IC50 is reported as 0.91 nM.

For CC(C)Cn1c(=O)c(C(=O)NC2CC2)c(O)n2ncc(/C=C/C(=O)N3CCC[C@@H]3C#N)c12 [compound 496, (R,E)-3-(3-(2-Cyanopyrrolidin-1-yl)-3-oxoprop-1-en-1-yl)-N-cyclopropyl-7-hydroxy-4-isobutyl-5-oxo-4,5-dihydropyrazolo[1,5-a]pyrimidine-6-carboxamide], the IC50 was 0.75 nM.

For CC(C)Cn1c(=O)c(C(=O)NC2CC2)c(O)n2ncc(/C=C/C(=O)N(C)C3CC3)c12 [compound 497, (E)-N-Cyclopropyl-3-(3-(cyclopropyl(methyl)amino)-3-oxoprop-1-en-1-yl)-7-hydroxy-4-isobutyl-5-oxo-4,5-dihydropyrazolo[1,5-a]pyrimidine-6-carboxamide], the IC50 was 0.59 nM.

Work on CC(C)Cn1c(=O)c(C(=O)NC2CC2)c(O)n2ncc(/C=C/C(=O)N(C)CC#N)c12 [compound 498, (E)-3-(3-((Cyanomethyl)(methyl)amino)-3-oxoprop-1-en-1-yl)-N-cyclopropyl-7-hydroxy-4-isobutyl-5-oxo-4,5-dihydropyrazolo[1,5-a]pyrimidine-6-carboxamide] yielded an IC50 of 0.72 nM.

CC(C)Cn1c(=O)c(C(=O)NC2CC2)c(O)n2ncc(/C=C/C(=O)N(C)CC3CCOCC3)c12 [compound 499, (E)-N-Cyclopropyl-7-hydroxy-4-isobutyl-3-(3-(methyl((tetrahydro-2H-pyran-4-yl)methyl)amino)-3-oxoprop-1-en-1-yl)-5-oxo-4,5-dihydropyrazolo[1,5-a]pyrimidine-6-carboxamide] was tested, and the IC50 was 0.74 nM.

CC(C)Cn1c(=O)c(C(=O)NC2CC2)c(O)n2ncc(/C=C/C(=O)N3CC[C@H](O)C3)c12 [compound 501, (S,E)-N-Cyclopropyl-7-hydroxy-3-(3-(3-hydroxypyrrolidin-1-yl)-3-oxoprop-1-en-1-yl)-4-isobutyl-5-oxo-4,5-dihydropyrazolo[1,5-a]pyrimidine-6-carboxamide] showed an IC50 of 0.71 nM.

In the case of CC(C)Cn1c(=O)c(C(=O)NC2CC2)c(O)n2ncc(/C=C/C(=O)N3CC[C@@H](O)C3)c12 [compound 502, (R,E)-N-Cyclopropyl-7-hydroxy-3-(3-(3-hydroxypyrrolidin-1-yl)-3-oxoprop-1-en-1-yl)-4-isobutyl-5-oxo-4,5-dihydropyrazolo[1,5-a]pyrimidine-6-carboxamide], the IC50 is reported as 0.7 nM.

With CC(C)Cn1c(=O)c(C(=O)NC2CC2)c(O)n2ncc(/C=C/C(=O)N(C)C(C)C)c12 [compound 503, (E)-N-Cyclopropyl-7-hydroxy-4-isobutyl-3-(3-(isopropyl(methyl)amino)-3-oxoprop-1-en-1-yl)-5-oxo-4,5-dihydropyrazolo[1,5-a]pyrimidine-6-carboxamide] the IC50 was 0.8 nM.

CCN(CC)C(=O)/C=C/c1cnn2c(O)c(C(=O)NC3CC3)c(=O)n(CC(C)C)c12 [compound 504, (E)-N-Cyclopropyl-3-(3-(diethylamino)-3-oxoprop-1-en-1-yl)-7-hydroxy-4-isobutyl-5-oxo-4,5-dihydropyrazolo[1,5-a]pyrimidine-6-carboxamide] was tested, and the IC50 was 0.84 nM.

CC(C)Cn1c(=O)c(C(=O)NC2CC2)c(O)n2ncc(/C=C/C(=O)N3CCN(CC(F)(F)C(F)(F)F)CC3)c12 [compound 505, (E)-N-Cyclopropyl-7-hydroxy-4-isobutyl-5-oxo-3-(3-oxo-3-(4-(2,2,3,3,3-pentafluoropropyl)piperazin-1-yl)prop-1-en-1-yl)-4,5-dihydropyrazolo[1,5-a]pyrimidine-6-carboxamide] gave an IC50 of 1.89 nM.

With CC(C)Cn1c(=O)c(C(=O)NC2CC2)c(O)n2ncc(/C=C/C(=O)N3CCN(CC(F)(F)F)CC3)c12 [compound 506, (E)-N-Cyclopropyl-7-hydroxy-4-isobutyl-5-oxo-3-(3-oxo-3-(4-(2,2,2-trifluoroethyl)piperazin-1-yl)prop-1-en-1-yl)-4,5-dihydropyrazolo[1,5-a]pyrimidine-6-carboxamide] the IC50 was 0.8 nM.

For CC(C)Cn1c(=O)c(C(=O)NC2CC2)c(O)n2ncc(/C=C/C(=O)NCC(C)(C)O)c12 [compound 507, (E)-N-Cyclopropyl-7-hydroxy-3-(3-((2-hydroxy-2-methylpropyl)amino)-3-oxoprop-1-en-1-yl)-4-isobutyl-5-oxo-4,5-dihydropyrazolo[1,5-a]pyrimidine-6-carboxamide], the IC50 was 1.13 nM.

CC(C)Cn1c(=O)c(C(=O)NC2CC2)c(O)n2ncc(/C=C/C(=O)N3CCNCC3)c12 [compound 508, (E)-N-Cyclopropyl-7-hydroxy-4-isobutyl-5-oxo-3-(3-oxo-3-(piperazin-1-yl)prop-1-en-1-yl)-4,5-dihydropyrazolo[1,5-a]pyrimidine-6-carboxamide hydrochloride] was tested, and the IC50 was 0.77 nM.
